Measurements as given in US20230373985A1 (Origenis Gmbh, priority 2020, published 2023).
Several values for one entry are separate records, joined by “and”; a condition that tells them apart may be missing. Identical values can stand only once.

How the values were obtained:
[1] = target: T1, wt human TYK2, catalytic site (Homo sapiens, UniProt P29597); assay: HTRF KinEASE assay, TYK2; type: biochemical; settings: 1 μM ATP; read-out: IC50, Activity Toward TYK2
T1 construct: wt human TYK2, catalytic site; purchased SignalChem
T1 sequence (P29597 897-1176 limits assumed): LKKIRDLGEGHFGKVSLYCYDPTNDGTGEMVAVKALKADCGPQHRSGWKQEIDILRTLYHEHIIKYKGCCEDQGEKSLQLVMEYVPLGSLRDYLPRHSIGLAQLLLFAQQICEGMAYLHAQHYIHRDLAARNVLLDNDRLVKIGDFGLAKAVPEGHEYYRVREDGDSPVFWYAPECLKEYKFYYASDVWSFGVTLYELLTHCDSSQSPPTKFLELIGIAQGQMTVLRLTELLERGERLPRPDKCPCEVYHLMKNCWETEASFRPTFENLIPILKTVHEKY
Outline: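 Kinase reaction run at room temperature for at least 30 min: 2 nM TYK2 with 1 μM ATP, or 1 nM JAK2 with 100 μM ATP, each with 1 μM biotin-TK substrate. Phosphorylation detected by HTRF (60 min antibody/XL665) and evaluated from emission ratios.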

[2] = target: T2, wt human JAK1, catalytic site (Homo sapiens, UniProt P23458); assay: HTRF KinEASE assay, JAK1; type: biochemical; settings: 2.5 μM ATP; read-out: IC50, Activity Toward JAK1
T2 construct: wt human JAK1, catalytic site; purchased ThermoFisher
Outline: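 Compounds in DMSO dilution were mixed with kinase, biotin-TK substrate and ATP and reacted for ≥30 min at room temperature. Detection reagents (antibody, streptavidin-XL665) were read 60 min later as HTRF, with emission ratios analysed per KinEASE protocol.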

T2 sequence (P23458 875-1153 limits assumed): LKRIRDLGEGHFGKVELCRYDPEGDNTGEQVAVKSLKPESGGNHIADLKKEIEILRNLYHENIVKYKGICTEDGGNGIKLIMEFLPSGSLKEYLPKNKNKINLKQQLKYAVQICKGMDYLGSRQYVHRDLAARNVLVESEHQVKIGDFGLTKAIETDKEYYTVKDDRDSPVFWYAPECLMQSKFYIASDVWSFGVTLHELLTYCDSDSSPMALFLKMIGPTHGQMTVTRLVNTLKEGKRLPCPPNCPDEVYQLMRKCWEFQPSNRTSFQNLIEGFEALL

Structure (SMILES) | IC50 [1] | IC50 [2] [nM]
NC(=O)c1nn(-c2c(Cl)cccc2Cl)cc1Nc1ccc(C(=O)N2CC(F)(F)C(F)(F)C2)nc1 [compound 362, 1-(2,6-dichlorophenyl)-4-((6-(3,3,4,4-tetrafluoropyrrolidine-1-carbonyl)pyridin-3-yl)amino)-1H-pyrazole-3-carboxamide] | 10 to 100 nM | 100 to 1000
CN1CCN(C(=O)c2ccc(Nc3cn(-c4c(Cl)cccc4Cl)nc3C(N)=O)cn2)CC1 [compound 363, 1-(2,6-dichlorophenyl)-4-((6-(4-methylpiperazine-1-carbonyl)pyridin-3-yl)amino)-1H-pyrazole-3-carboxamide] | 10 to 100 nM | 100 to 1000
NC(=O)c1nn(-c2c(Cl)cccc2Cl)cc1Nc1ccc(C(=O)N2CCN(C3CC3)CC2)nc1 [compound 364, 4-((6-(4-cyclopropylpiperazine-1-carbonyl)pyridin-3-yl)amino)-1-(2,6-dichlorophenyl)-1H-pyrazole-3-carboxamide] | 10 to 100 nM | 100 to 1000
NC(=O)c1nn(-c2c(Cl)cccc2Cl)cc1Nc1ccc(C(=O)N2CCOCC2)nc1 [compound 365, 1-(2,6-dichlorophenyl)-4-((6-(morpholine-4-carbonyl)pyridin-3-yl)amino)-1H-pyrazole-3-carboxamide] | 10 to 100 nM | 10 to 100
CN(C)[C@H]1CCN(C(=O)c2ccc(Nc3cn(-c4c(Cl)cccc4Cl)nc3C(N)=O)nc2)C1 [compound 366, (S)-1-(2,6-dichlorophenyl)-4-((5-(3-(dimethylamino)pyrrolidine-1-carbonyl)pyridin-2-yl)amino)-1H-pyrazole-3-carboxamide] | 10 to 100 nM | 100 to 1000
NC(=O)c1nn(-c2c(Cl)cccc2Cl)cc1Nc1ccc(C(=O)N2CC[C@H](F)C2)cn1 [compound 367, (S)-1-(2,6-dichlorophenyl)-4-((5-(3-fluoropyrrolidine-1-carbonyl)pyridin-2-yl)amino)-1H-pyrazole-3-carboxamide] | 10 to 100 nM | 100 to 1000
CN1CCN(C(=O)c2ccc(Nc3cn(-c4c(Cl)cccc4Cl)nc3C(N)=O)nc2)CC1 [compound 370, 1-(2,6-dichlorophenyl)-4-((5-(4-methylpiperazine-1-carbonyl)pyridin-2-yl)amino)-1H-pyrazole-3-carboxamide] | 10 to 100 nM | 100 to 1000
NC(=O)c1nn(-c2c(Cl)cccc2Cl)cc1Nc1ccc(-n2nc(C(F)(F)F)nc2CO)cc1 [compound 371, 1-(2,6-dichlorophenyl)-4-((4-(5-(hydroxymethyl)-3-(trifluoromethyl)-1H-1,2,4-triazol-1-yl)phenyl)amino)-1H-pyrazole-3-carboxamide] | < 10 nM | 100 to 1000
NC(=O)c1nn(-c2c(Cl)cccc2Cl)cc1Nc1ccc(-c2nc(C(F)(F)F)cn2CCO)nc1 [compound 373, 1-(2,6-dichlorophenyl)-4-((6-(1-(2-hydroxyethyl)-4-(trifluoromethyl)-1H-imidazol-2-yl)pyridin-3-yl)amino)-1H-pyrazole-3-carboxamide] | 10 to 100 nM | 100 to 1000
Cc1cnc(C)c(-n2cc(Nc3cn(-c4c(Cl)cccc4Cl)nc3C(N)=O)cn2)n1 [compound 374, 1-(2,6-dichlorophenyl)-4-((1-(3,6-dimethylpyrazin-2-yl)-1H-pyrazol-4-yl)amino)-1H-pyrazole-3-carboxamide] | 100 to 1000 nM | 100 to 1000
Cn1nnnc1-c1ccc(Nc2cn(-c3c(Cl)cccc3Cl)nc2C(N)=O)cn1 [compound 375, 1-(2,6-dichlorophenyl)-4-((6-(1-methyl-1H-tetrazol-5-yl)pyridin-3-yl)amino)-1H-pyrazole-3-carboxamide] | 10 to 100 nM | 100 to 1000
Cn1cc(Nc2cn(-c3c(Cl)cccc3Cl)nc2C(N)=O)cn1 [compound 377, 1-(2,6-dichlorophenyl)-4-((1-methyl-1H-pyrazol-4-yl)amino)-1H-pyrazole-3-carboxamide] | 100 to 1000 nM | 10 to 100
CC(C)n1cc(Nc2cn(-c3c(Cl)cccc3Cl)nc2C(N)=O)cn1 [compound 378, 1-(2,6-dichlorophenyl)-4-((1-isopropyl-1H-pyrazol-4-yl)amino)-1H-pyrazole-3-carboxamide] | 10 to 100 nM | 100 to 1000
Cn1ncc(Nc2cn(-c3c(Cl)cccc3Cl)nc2C(N)=O)n1 [compound 379, 1-(2,6-dichlorophenyl)-4-((2-methyl-2H-1,2,3-triazol-4-yl)amino)-1H-pyrazole-3-carboxamide] | 100 to 1000 nM | 100 to 1000
Cn1cc(Nc2cn(-c3c(Cl)cccc3Cl)nc2C(N)=O)nn1 [compound 380, 1-(2,6-dichlorophenyl)-4-((1-methyl-1H-1,2,3-triazol-4-yl)amino)-1H-pyrazole-3-carboxamide] | 100 to 1000 nM | 100 to 1000

Continued, values first:

IC50 [1] | IC50 [2] [nM] | Structure (SMILES)
100 to 1000 nM | 100 to 1000 | Cn1ccc(Nc2cn(-c3c(Cl)cccc3Cl)nc2C(N)=O)cc1=O [compound 381, 1-(2,6-dichlorophenyl)-4-((1-methyl-2-oxo-1,2-dihydropyridin-4-yl)amino)-1H-pyrazole-3-carboxamide]
10 to 100 nM and 100 to 1000 nM | 100 to 1000 | NC(=O)c1nn(-c2c(Cl)cccc2Cl)cc1Nc1ccc(C(=O)N2CCN(C3CC3)CC2)cn1 [compound 383, 4-((5-(4-cyclopropylpiperazine-1-carbonyl)pyridin-2-yl)amino)-1-(2,6-dichlorophenyl)-1H-pyrazole-3-carboxamide]
100 to 1000 nM | 100 to 1000 | NC(=O)c1nn(-c2c(Cl)cccc2Cl)cc1Nc1ccc(N2CCCCC2=O)nc1 [compound 384, 1-(2,6-dichlorophenyl)-4-((6-(2-oxopiperidin-1-yl)pyridin-3-yl)amino)-1H-pyrazole-3-carboxamide]
10 to 100 nM | 100 to 1000 | NC(=O)c1nn(-c2c(Cl)cccc2Cl)cc1Nc1ccc(-n2nc(C(F)(F)F)nc2CO)nc1 [compound 385, 1-(2,6-dichlorophenyl)-4-((6-(5-(hydroxymethyl)-3-(trifluoromethyl)-1H-1,2,4-triazol-1-yl)pyridin-3-yl)amino)-1H-pyrazole-3-carboxamide]
100 to 1000 nM | 100 to 1000 | NC(=O)c1nn(-c2c(Cl)cccc2Cl)cc1Nc1ccc(-n2ccccc2=O)nc1 [compound 390, 1-(2,6-dichlorophenyl)-4-((2-oxo-2H-[1,2′-bipyridin]-5′-yl)amino)-1H-pyrazole-3-carboxamide]
100 to 1000 nM | 100 to 1000 | COc1ccc(Cn2cc(Nc3cn(-c4c(Cl)cccc4Cl)nc3C(N)=O)cn2)cc1 [compound 392, 1-(2,6-dichlorophenyl)-4-((1-(4-methoxybenzyl)-1H-pyrazol-4-yl)amino)-1H-pyrazole-3-carboxamide]
100 to 1000 nM | 100 to 1000 | CC(C)c1nnnn1-c1ccc(Nc2cn(-c3c(Cl)cccc3Cl)nc2C(N)=O)cn1 [compound 393, 1-(2,6-dichlorophenyl)-4-((6-(5-isopropyl-1H-tetrazol-1-yl)pyridin-3-yl)amino)-1H-pyrazole-3-carboxamide]
100 to 1000 nM | 100 to 1000 | NC(=O)c1nn(-c2c(Cl)cccc2Cl)cc1Nc1ccn(-c2ccccn2)n1 [compound 397, 1-(2,6-dichlorophenyl)-4-((1-(pyridin-2-yl)-1H-pyrazol-3-yl)amino)-1H-pyrazole-3-carboxamide]
